These results are taken from PMC4357015, “Structure, Function and Inhibition of the Phosphoethanolamine Methyltransferases of the Human Malaria Parasites Plasmodium vivax and Plasmodium knowlesi” (Scientific Reports, 2015).

For one assay, the system named is pem1Δpem2Δ-pYES2.1-PvPMT. The experiment in a line: yeast growth inhibition, pem1Δpem2Δ strain expressing PvPMT. The settings on record: 100 μM AQ. The assay is classed as cell-based. On the procedure: (§1) Figure 5 PMT-dependent inhibition of growth and PC biosynthesis by amodiaquine and NSC158011. (A–C): Growth curves of pem1Δpem2Δ-pYES2.1-PkPMT (A), pem1Δpem2Δ-pYES2.1-PvPMT (B), or Wild Type-pYES2.1- (C) strains grown in minimal medium containing 4% galactose and 1 mM ethanolamine in the presence or absence of 100 μM choline and 100 μM amodiaquine (AQ) as indicated. Growth curves of pem1Δpem2Δ-pYES2.1-PkPMT (D), pem1Δpem2Δ-pYES2.1-PvPMT (E), or Wild Type-pYES2.1- (F) strains maintained in minimal medium containing 4% galactose and 1 mM ethanolamine in the presence or absence of 100 μM choline and 10 μM NSC158011.
(§2) pem1Δpem2Δ-pYES2.1, pem1Δpem2Δ-pYES2.1-PkPMT, pem1Δpem2Δ-pYES2.1-PvPMT, and pem1Δpem2Δ-pYES2.1-PfPMT yeast strains were pre-grown overnight in uracil dropout synthetic galactose (4%) (SG-URA) medium supplemented with 2 mM ethanolamine (Etn). Cells were diluted to an A600 = 0.001 in fresh SG-URA medium supplemented with 2 mM Etn in the presence or absence of 100 μM Choline (Cho). Cells were grown at 30°C and the growth was monitored by measuring the A600. […]

Another assay relates to PfPMT. The arrangement: method as in PMID 20085640, PMID 24145416. The settings on record: cited from earlier work.
Another assay addresses T1, PkPMT (Plasmodium knowlesi, UniProt A0A384KJX3).
T1 sequence (A0A384KJX3 1-264): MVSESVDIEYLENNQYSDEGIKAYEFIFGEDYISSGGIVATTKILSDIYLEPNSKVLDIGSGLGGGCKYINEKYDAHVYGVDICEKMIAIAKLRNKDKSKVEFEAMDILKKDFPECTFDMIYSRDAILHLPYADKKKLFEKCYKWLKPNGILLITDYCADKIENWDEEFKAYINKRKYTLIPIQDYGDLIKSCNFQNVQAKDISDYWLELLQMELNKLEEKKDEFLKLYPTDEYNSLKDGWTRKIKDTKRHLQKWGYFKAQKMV
In words: radiometric PMT transmethylation assay, inhibition of PkPMT. The settings on record: P-Etn 2 mM, SAM 1.5 mM; inhibitor 0, 100, 500, 1000 μM; read-out: IC50, inhibition of PkPMT activity. The assay is classed as biochemical. The procedure:
Figure 3 Amodiaquine (AQ) and NSC158011 inhibit the activity of PvPMT and PkPMT. Enzyme inhibition assays with different concentrations of Amodiaquine (AQ), NSC158011 and Chloroquine (CQ) were carried out at constant P-Etn (2 mM) and SAM (1.5 mM) concentrations. The activity in the absence of any drug was taken as 100% and % enzyme activity was calculated in the presence of different drug concentrations (100, 500, 1000 μM). To determine the concentration that results in 50% inhibition of enzyme activity (IC50), the data were fitted to a non-linear regression analysis in the following equation Y = 100/(1 + ([X]/IC50)), where Y is % enzyme activity and X is drug concentration using Graph pad software.
For enzyme kinetics studies recombinant histidine-tagged proteins were expressed using 1 mM IPTG for 4 h, purified using Ni-affinity purification and dialyzed. As expected, purified proteins migrated in SDS-PAGE gels at approximately 31 kDa. The purified proteins were stored in HEPES-KOH buffer (pH 7.4) at 4°C and were assayed within a month of purification. During this time, the integrity of the protein was assessed by SDS-PAGE. The kinetic properties of enzymes were assessed using radiometric assay wherein incorporation of radioactive labeled methyl donor (100nCi [methyl-^14C] SAM, Perkin elmer NEC363010UC) or (200nCi [methyl-^3H] SAM, Perkin Elmer NET155H250UC) was measured. […]

In another assay the test system is pem1Δpem2Δ-pYES2.1-PkPMT. In words: yeast growth inhibition, pem1Δpem2Δ strain expressing PkPMT. The assay is classed as cell-based. The settings on record: 100 μM AQ. The procedure:
as §1, §2

[1] abbreviates: ethanolamine medium without choline.

Molecules are shown by their SMILES.

On to `CCN(CC)Cc1cc(Nc2ccnc3cc(Cl)ccc23)ccc1O` [AQ, amodiaquine], for which, in the assay on pem1Δpem2Δ-pYES2.1-PvPMT (100 μM choline), the “growth of pem1Δpem2Δ+PvPMT strain in media supplemented with choline” value is listed as “no effect”. In addition, in the assay with pem1Δpem2Δ-pYES2.1-PvPMT (setting [1]), the “growth of pem1Δpem2Δ+PvPMT strain” value is “significantly inhibited”. In addition, the “mode of inhibition of PfPMT” value in the assay on PfPMT is reported as “non-competitive inhibitors”. Besides, on PkPMT, the IC50 (usually the concentration that gives 50% inhibition) was found to be 398 µM. For the same compound, the “growth of pem1Δpem2Δ+PkPMT strain in media supplemented with choline” value in the assay with pem1Δpem2Δ-pYES2.1-PkPMT (100 μM choline) was “no effect”. Besides, in the assay on pem1Δpem2Δ-pYES2.1-PkPMT (setting [1]), the “growth of pem1Δpem2Δ+PkPMT strain” value is listed as “significantly inhibited”.
